Source: patent publication US5032584A, “S-diastereomer of an n^6 -((2-hydroxypropyl)aryl)adenosine and its medicinal uses” (G. D. Searle & Co., priority 1988, dated 1991)
“Also recorded” adds a separate entry of the source.

Key:
[1] = tested on: spontaneously hypertensive rats (SHR); assay: Effects on mean arterial pressure and heart rate in conscious spontaneously hypertensive rats (i.v. or intragastric); format: in vivo, rat
Protocol: The effects of compounds I and II were tested intravenously or intragastrically in conscious spontaneously hypertensive rats (SHR). The rats were anesthetized with ether and the left carotid artery and right jugular vein were cannulated with polyethylene tubing. The rats were allowed three to five hours recovery from anesthesia for the I.V. studies and 12 to 18 hours for the oral studies. Mean arterial pressure (MAP, in mm/Hg) and heart rate (HR, beats/min.) were measured from the artery; intravenous administration of compounds was performed by injection into the vein. Oral administration was performed by gastric intubation. Compounds were dissolved in DMSO for I.V. studies and injected in volumes of 100 μ1/kg or less (N=5 per pound). Doses were 3 to 1,000 μg/kg. Compounds were dissolved in polyethylene glycol for oral administration and injected in volumes of 1 ml/kg at a dose of 20 mg/kg/day for three days (N=3 to 6 per compound).
The resting MAP and HR for the SHR ranged between 160-200 mm Hg and 330/350 b/min., respectively.

[2] = tested on: plasma renin activity (PRA); assay: Change in plasma renin activity in the bilateral renal artery ligated rat; format: in vivo, Sprague-Dawley rats; details: 1 mg/kg I.V.; for Prevention of PRA increase (in words): 30 and 60 minutes
Protocol: Adenosine Al receptor stimulation will inhibit the release of renin from the kidney. A stimulus for the release of renin is renal ischemia. The ability of the compounds of the present invention to prevent an increase in PRA following renal ischemia was tested in rats with both renal arteries ligated. Sprague-Dawley rats were anesthetized with ether and the renal arteries were ligated. Three to five hours after anesthesia, arterial blood was sampled and compounds I and II were administered in polyethylene glycol at 1 mg/kg I.V. At 30 and 60 minutes after administration, arterial blood was sampled for PRA measurement by the method of Sealy, J. E. et al., Cardiovasc. Med. 2:1079, 1977.

mice [3] = assay: Ataxia on the rotating rod in mice; format: in vivo; details: for Percent ataxic, 0.5 hour / Percent ataxic, 3 hour: 54 ± 12 mg/kg ip (pooled 32, 56, 75 mg/kg)
Protocol: (§1) Adenosine analogs tend to produce sedation and central nervous system depression which have prevented their therapeutic utility. The compounds of the invention, at doses which lower arterial pressure in the SHR, show no evidence of CNS depression. The ataxia produced by compounds of the present invention was measured in mice by injecting the compounds IP at doses of 32, 56, or 75 mg/kg in an aqueous suspension, n=7 per dose. The mice had previously been trained to remain on a rotating rod. After dosing, the percent of mice unable to remain on the rotating rod was determined. […] The mice were also observed at various time intervals for behavioral signs of toxicity.

mice [4] = assay: Behavioral toxicity in mice after 75 mg/kg IP; format: in vivo; parameters: key to Motor depression / Ptosis / Respiratory depression / Flaccidity / Loss of righting reflex: +: toxic symptom observed
Protocol: as §1

Solubility in MeOH = format: physicochemical; details: S isomer vs R isomer
[5] = tested on: adenosine A1 receptor in the granular juxtaglomerular cells of the kidney; details: Federation Proceedings 44:879 & 1643, 1985; cited from earlier work
[6] = 20 mg/kg intragastric, day 2 of oral administration

Row | Compound | Prevention of PRA increase (in words) [2] | Percent ataxic, 0.5 hour (mice [3]) | Percent ataxic, 3 hour (mice [3]) | Flaccidity (mice [4]; 75 mg/kg IP, 18-20 h) | Motor depression (mice [4]; 75 mg/kg IP, 18-20 h) | Ptosis (mice [4]; 75 mg/kg IP, 18-20 h) | Motor depression (mice [4]; 75 mg/kg IP, 0.5 h) | Ptosis (mice [4]; 75 mg/kg IP, 0.5 h) | Motor depression (mice [4]; 75 mg/kg IP, 3 h) | Ptosis (mice [4]; 75 mg/kg IP, 3 h) | Solubility in MeOH (in words) (Solubility in MeOH) | also measured
1 | OC[C@H]1O[C@@H](n2cnc3c(NC[C@H](O)COc4cccc5ccccc45)ncnc32)[C@H](O)[C@@H]1O [Compound II, N^6-[2S-hydroxy-3-(1naphthalenyloxy)propyl]-adenosine] | prevented to the same extent | 14 ± 8% | 48 ± 21% | + | + | + | + | + | + | + | less soluble in MeOH | Maximum decrease at 20 mg/kg ig, HR [1, 6]: 202 ± 24 b/min; Maximum decrease at 20 mg/kg ig, MAP [1, 6]: 62 ± 7 mmHg; ED (HR decrease by 100 b/min) ([1]; Rattus norvegicus, iv, i.v. in DMSO, read-out: IV dose to decrease HR by 100 b/min): 0.036 ± 0.0012 mg/kg; ED (MAP decrease by 40 mmHg) ([1]; Rattus norvegicus, iv, i.v. in DMSO, read-out: IV dose to decrease MAP by 40 mmHg): 0.047 ± 0.0012 mg/kg; Change in PRA, 30 minutes ([2]; 30 min after dosing): -11.7 ± 3.5 ngAI/ml/hr; Change in PRA, 60 minutes ([2]; 60 min after dosing): -13.8 ± 4.9 ngAI/ml/hr; Central nervous system toxicity (in words) (mice [3]; compared to compound I / racemic mixture): less CNS toxic than compound I, especially with regard to ataxia; also recorded: less central nervous system toxicity than the racemic mixture; Ataxia / motor toxicity (in words) (mice [3]; mice, ip, compared to compound I): less ataxia at 0.5 or 3 hours as compared to compound I; also recorded: less motor toxicity than compound I; Motor depression (mice [4]; 75 mg/kg IP, 24 h): +; Motor depression, incidence (mice [4]; 75 mg/kg IP, 24 h): 5/7; Ptosis (mice [4]; 75 mg/kg IP, 24 h): +; Ptosis, incidence (mice [4]; 75 mg/kg IP, 24 h): 5/7; Respiratory depression, incidence (mice [4]; 75 mg/kg IP, 24 h): 5/7; Respiratory depression (mice [4]; mouse, in vivo): +
2 | OC[C@H]1O[C@@H](n2cnc3c(NC[C@@H](O)COc4cccc5ccccc45)ncnc32)[C@H](O)[C@@H]1O [R isomer] | – | – | – | – | – | – | – | – | – | – | more soluble in MeOH | –
3 | OC[C@H]1O[C@@H](n2cnc3c(NCC(O)COc4cccc5ccccc45)ncnc32)[C@H](O)[C@@H]1O (mixture of isomers) [Compound I, N(6)-[2-hydroxy-3-(1-naphthyloxy)propyl]-adenosine] | prevented to the same extent | 33 ± 10% | 95 ± 5% | + | + | + | + | + | + | + | – | Flaccidity, incidence (footnote *) (mice [4]; 75 mg/kg IP, 18-20 h): 2/7; Respiratory depression (mice [4]; 75 mg/kg IP, 18-20 h): +; Respiratory depression (mice [4]; 75 mg/kg IP, 0.5 h): +; Behavioral toxicity (in words) (mice [4]; 75 mg/kg IP, 3 h): flaccidity and loss of righting reflex; Flaccidity (mice [4]; 75 mg/kg IP, 3 h): +; Loss of righting reflex (mice [4]; 75 mg/kg IP, 3 h): +; Respiratory depression (mice [4]; 75 mg/kg IP, 3 h): +; Binding to adenosine A1 receptor and effect on renin release, blood pressure, heart rate (in words) [5]: binds to the adenosine Al receptor in the granular juxtaglomerular cells of the kidney to inhibit release of renin into the plasma, ultimately resulting in a reduction in circulating angiotensin II, thus reducing arterial blood pressure and heart rate in hypertensive models
